Experimental findings from US20090005435A1, “Novel Compounds, Pharmaceutical Compositions Containing Same, and Methods of Use for Same” (priority 2004, published 2009) are described below.

≈ marks a conversion by molar mass, not a printed value. Where “and” joins values, the source holds several entries; their conditions need not be identical. Identical values can stand only once.

One experiment deals with T1, purified human FAS (Homo sapiens, UniProt P49327).
T1 construct: Human FAS was purified from cultured ZR-75-1 human breast cancer cells; endogenous in cells; host or cells: ZR-75-1 human breast cancer cells (ATCC); enzyme purified by PEG precipitation and Mono Q chromatography
T1 sequence (P49327 whole entry): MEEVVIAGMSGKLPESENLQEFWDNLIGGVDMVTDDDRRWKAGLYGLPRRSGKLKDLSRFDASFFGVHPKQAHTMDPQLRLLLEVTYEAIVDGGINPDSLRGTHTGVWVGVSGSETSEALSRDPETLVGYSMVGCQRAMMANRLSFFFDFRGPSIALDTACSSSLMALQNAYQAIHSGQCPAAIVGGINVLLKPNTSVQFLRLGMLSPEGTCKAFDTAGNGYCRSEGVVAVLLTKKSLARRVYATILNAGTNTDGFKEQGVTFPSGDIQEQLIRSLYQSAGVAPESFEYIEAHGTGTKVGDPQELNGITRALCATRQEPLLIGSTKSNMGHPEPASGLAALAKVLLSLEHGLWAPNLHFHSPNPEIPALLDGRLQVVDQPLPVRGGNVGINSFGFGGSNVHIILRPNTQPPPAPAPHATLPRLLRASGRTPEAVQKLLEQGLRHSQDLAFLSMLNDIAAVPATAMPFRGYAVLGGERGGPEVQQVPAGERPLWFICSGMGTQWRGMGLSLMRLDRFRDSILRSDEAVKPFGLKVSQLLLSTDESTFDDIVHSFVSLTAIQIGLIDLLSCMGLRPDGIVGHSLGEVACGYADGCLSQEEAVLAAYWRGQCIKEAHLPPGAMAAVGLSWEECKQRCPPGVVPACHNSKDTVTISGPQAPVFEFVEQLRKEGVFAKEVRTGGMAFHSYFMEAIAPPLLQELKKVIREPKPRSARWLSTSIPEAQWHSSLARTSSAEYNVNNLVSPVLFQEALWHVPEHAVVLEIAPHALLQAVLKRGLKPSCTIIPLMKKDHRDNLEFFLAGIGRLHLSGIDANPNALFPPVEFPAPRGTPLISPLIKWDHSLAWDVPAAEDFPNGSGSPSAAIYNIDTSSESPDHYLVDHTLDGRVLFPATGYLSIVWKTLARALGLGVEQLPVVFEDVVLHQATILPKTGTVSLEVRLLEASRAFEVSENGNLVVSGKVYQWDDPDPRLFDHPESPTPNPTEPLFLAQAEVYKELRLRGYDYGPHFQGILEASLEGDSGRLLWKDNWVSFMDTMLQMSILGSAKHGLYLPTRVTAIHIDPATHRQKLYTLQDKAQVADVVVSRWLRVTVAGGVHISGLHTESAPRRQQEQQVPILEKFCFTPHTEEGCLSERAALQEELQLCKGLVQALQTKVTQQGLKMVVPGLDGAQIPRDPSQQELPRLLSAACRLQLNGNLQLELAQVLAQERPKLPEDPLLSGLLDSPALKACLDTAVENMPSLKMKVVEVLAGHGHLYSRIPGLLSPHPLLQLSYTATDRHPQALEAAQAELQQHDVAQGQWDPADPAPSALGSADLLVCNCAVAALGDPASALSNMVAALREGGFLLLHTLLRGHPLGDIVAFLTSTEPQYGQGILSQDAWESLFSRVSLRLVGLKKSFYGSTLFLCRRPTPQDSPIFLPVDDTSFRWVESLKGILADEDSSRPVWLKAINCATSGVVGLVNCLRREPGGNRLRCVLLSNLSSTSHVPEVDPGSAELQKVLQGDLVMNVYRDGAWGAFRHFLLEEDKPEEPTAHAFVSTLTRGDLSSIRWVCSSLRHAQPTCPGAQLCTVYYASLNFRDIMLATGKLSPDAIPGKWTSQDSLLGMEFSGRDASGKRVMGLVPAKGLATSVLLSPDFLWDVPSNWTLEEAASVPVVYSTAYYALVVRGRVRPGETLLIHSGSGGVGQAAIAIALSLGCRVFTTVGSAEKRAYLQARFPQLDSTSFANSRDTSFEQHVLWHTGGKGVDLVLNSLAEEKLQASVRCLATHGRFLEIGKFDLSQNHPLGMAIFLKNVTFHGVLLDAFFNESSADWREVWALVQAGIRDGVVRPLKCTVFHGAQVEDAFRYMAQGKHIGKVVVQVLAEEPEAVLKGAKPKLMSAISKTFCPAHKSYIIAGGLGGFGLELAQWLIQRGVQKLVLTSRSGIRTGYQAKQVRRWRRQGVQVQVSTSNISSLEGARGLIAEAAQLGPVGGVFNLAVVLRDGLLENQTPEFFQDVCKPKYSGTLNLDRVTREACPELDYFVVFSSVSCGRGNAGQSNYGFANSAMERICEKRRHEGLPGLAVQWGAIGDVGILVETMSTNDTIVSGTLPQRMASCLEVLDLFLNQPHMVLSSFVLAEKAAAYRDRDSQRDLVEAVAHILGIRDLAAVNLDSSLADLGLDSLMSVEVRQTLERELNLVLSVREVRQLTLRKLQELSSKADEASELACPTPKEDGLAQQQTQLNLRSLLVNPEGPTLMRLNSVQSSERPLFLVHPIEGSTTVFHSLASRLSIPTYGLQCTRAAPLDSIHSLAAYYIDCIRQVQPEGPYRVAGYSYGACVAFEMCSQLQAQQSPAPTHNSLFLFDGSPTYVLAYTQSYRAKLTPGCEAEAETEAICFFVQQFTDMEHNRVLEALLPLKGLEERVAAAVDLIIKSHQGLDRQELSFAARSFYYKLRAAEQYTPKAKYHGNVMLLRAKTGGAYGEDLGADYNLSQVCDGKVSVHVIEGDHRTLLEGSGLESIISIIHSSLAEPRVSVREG
The experiment can be described thus: FAS enzymatic activity (malonyl-CoA dependent NADPH oxidation). Type of experiment: biochemical. The conditions noted are these: for IC50: (SB). The procedure: Purification of FAS from ZR-75-1 Human Breast Cancer Cells.
Human FAS was purified from cultured ZR-75-1 human breast cancer cells obtained from the American Type Culture Collection. The procedure, adapted from Linn et al., 1981, and Kuhajda et al., 1994, utilizes hypotonic lysis, successive polyethyleneglycol (PEG) precipitations, and anion exchange chromatography. ZR-75-1 cells are cultured at 37° C. with 5% CO2 in RPMI culture medium with 10% fetal bovine serum, penicillin and streptomycin.
Ten T150 flasks of confluent cells are lysed with 1.5 ml lysis buffer (20 mM Tris-HCl, pH 7.5, 1 mM EDTA, 0.1 mM phenylmethanesulfonyl fluoride (PMSF), 0.1% Igepal CA-630) and dounce homogenized on ice for 20 strokes. The lysate is centrifuged in JA-20 rotor (Beckman) at 20,000 rpm for 30 minutes at 4° C. and the supernatant is brought to 42 ml with lysis buffer. A solution of 50% PEG 8000 in lysis buffer is added slowly to the supernatant to a final concentration of 7.5%. After rocking for 60 minutes at 4° C., the solution is centrifuged in JA-20 rotor (Beckman) at 15,000 rpm for 30 minutes at 4° C. Solid PEG 8000 is then added to the supernatant to a final concentration of 15%. After the rocking and centrifugation is repeated as above, the pellet is resuspended overnight at 4° C. in 10 ml of Buffer A (20 mM K2HPO4, pH 7.4). After […] filtration, the protein solution is applied to a Mono Q 5/5 anion exchange column (Pharmacia). The column is washed for 15 minutes with buffer A at 1 ml/minute, and bound material is eluted with a linear 60-ml gradient over 60 minutes to 1 M KCl. FAS (MW˜270 kD) typically elutes at 0.25 M KCl in three 0.5 ml fractions identified using 4-15% SDS-PAGE with Coomassie G250 stain (Bio-Rad). FAS protein concentration is determined using the Coomassie Plus Protein Assay Reagent (Pierce) according to manufacturer's specifications using BSA as a standard. This procedure results in substantially pure preparations of FAS (>95%) as judged by Coomassie-stained gels.
Measurement of FAS Enzymatic Activity and Determination of the IC50 of the Compounds
FAS activity is measured by monitoring the malonyl-CoA dependent oxidation of NADPH spectrophotometrically at OD340 in 96-well plates (Dils et al and Arslanian et al, 1975). Each well contains 2 μg purified FAS, 100 mM K2HPO4, pH 6.5, 1 mM dithiothreitol (Sigma), and 187.5 μM β-NADPH (Sigma). Stock solutions of inhibitors are prepared in DMSO at 2, 1, and 0.5 mg/ml resulting in final concentrations of 20, 10, and 5 μg/ml when 1 μl of stock is added per well. For each experiment, cerulenin (Sigma) is run as a positive control along with DMSO controls, inhibitors, and blanks (no FAS enzyme) all in duplicate.
The assay is performed on a Molecular Devices SpectraMax Plus Spectrophotometer. The plate containing FAS, buffers, inhibitors, and controls are placed in the spectrophotometer heated to 37° C. Using the kinetic protocol, the wells are blanked on duplicate wells containing 100 μl of 100 mM K2HPO4, pH 6.5 and the plate is read at OD340 at 10 sec intervals for 5 minutes to measure any malonyl-CoA independent oxidation of NADPH. The plate is removed from the spectrophotometer and malonyl-CoA (67.4 μM, final concentration per well) and […] (61.8 μM, final concentration per well) are added to each well except to the blanks. The plate is read again as above with the kinetic protocol to measure the malonyl-CoA dependent NADPH oxidation. The difference between the Δ OD340 for the malonyl-CoA dependent and non-malonyl-CoA dependent NADPH oxidation is the specific FAS activity. Because of the purity of the FAS preparation, non-malonyl-CoA dependent NADPH oxidation is negligible.
The IC50 for the compounds against FAS is determined by plotting the Δ OD340 for each inhibitor concentration tested, performing linear regression and computing the best-fit line, r^2 values, and 95% confidence intervals. The concentration of compound yielding 50% inhibition of FAS is the IC50. […]

For another experiment, the system named is (O). The experiment can be described thus: XTT cytotoxicity assay (O). Type of experiment: cell-based. The conditions noted are these: read-out: XTT (IC50) (O). The method, then: The XTT assay is a non-radioactive alternative for the [^51Cr] release cytotoxicity assay. XTT is a tetrazolium salt that is reduced to a formazan dye only by metabolically active, viable cells. The reduction of XTT is measured spectrophotometrically as OD490-OD650.
After 72 hours of incubation, cells are incubated for 4 hours with the XTT reagent as per manufacturer's instructions (Cell Proliferation Kit II (XTT) Roche). Plates are read at OD490 and OD650 on a Molecular Devices SpectraMax Plus Spectrophotometer. Three wells containing the XTT reagent without cells serve as the plate blank. XTT data are reported as OD490-OD650. Averages and standard error of the mean are computed using SOFTmax Pro software ([…]).
The IC50 for the compounds is defined as the concentration of drug leading to a 50% reduction in OD490-OD650 compared to controls. The OD490-OD650 are computed by the SOFTmax PRO software (Molecular Devices) for each compound concentration. IC50 is calculated by linear regression, plotting the FAS activity as percent of control versus drug concentrations. Linear regression, best-fit line, r^2, and 95% confidence intervals are determined using Prism Version 3.0 (Graph Pad Software).
On the technique in general: Formazan colour is commonly taken as a measure of viable cells.

A further experiment is described as follows: Weight loss screen. Type of experiment: in vivo, Balb/C mice. The conditions noted are these: 60 mg/kg. The procedure: Weight Loss Screen for Novel FAS Inhibitors Balb/C mice (Jackson Labs) are utilized for the initial weight loss screening. Animals are housed in temperature and 12 hour day/night cycle rooms and fed mouse chow and water ad lib. Three mice are utilized for each compound tested with vehicle controls in triplicate per experiment. For the experiments, mice are housed separately for each compound tested three mice to a cage. Compounds are diluted in DMSO at 10 mg/ml and mice are injected intraperitoneally with 60 mg/kg in approximately 100 μl of DMSO or with vehicle alone. Mice are observed and weighed daily; average weights and standard errors are computed with Excel (Microsoft). The experiment continues until treated animals reach their pretreatment weights. Select compounds are tested in animals housed in metabolic cages. Dosing of animals are identical to the screening experiments with three animals to a single metabolic cage. Animal weights, water and food consumption, and urine and feces production are measured daily.

Consider `CCCCCCCCCCC1(C)SC(=O)C(C)(C)C1=O` (stereo not shown) [Compound 12, 3,3,5-Trimethyl-5-decyl-thiophene-2,4-dione], for which the figures for the IC50 against purified human FAS and in the experiment on (O) were 854 µM and greater than 80 µg/mL, respectively. The “Weight Loss” value in the experiment “Weight loss screen” (day 2) is recorded as 60 mg/kg: 9.0% (day 2).

For `C=CCC1(CC=C)C(=O)SC(C)(CCCCCCCC)C1=O` (racemic) [Compound 4, 3,3-Diallyl-5-methyl-5-octyl-thiophene-2,4-dione], at purified human FAS, the “FAS (IC50)” value is “Neg” and the IC50 (as a rule, the concentration that inhibits the measured activity by half) was 884 µM. Moreover, the IC50 in the experiment on (O) amounted to 53.7 ± 1 µg/mL (≈ 167 µM). For the same molecule, the “Weight Loss” value in the experiment “Weight loss screen” (day 1) is 7.9% and 8.0% and 6.8%.

Regarding `C=CCC1(CC=C)C(=O)SC(C)(CCCCCCCCCC)C1=O` (stereo not shown) [Compound 15, 3,3-Diallyl-5-methyl-5-decyl-thiophene-2,4-dione], the IC50 at purified human FAS was 804 µM; in the experiment on (O) it was greater than 80 µg/mL. In addition, the “Weight Loss” value in the experiment “Weight loss screen” (day 2) is listed as 60 mg/kg: 3.5% (day 2).
